The target in data set [1] is T1, Lysine-specific histone demethylase 1A (Homo sapiens, UniProt O60341). Put plainly: Inhibition of recombinant LSD1 ( unknown origin) expressed in Escherichia coli BL21 (DE3) cells using H3K4me2 peptide as substrate incubated for 30 mins in presence of FAD by fluorescence microplate reader analysis.
The subject of data set [2] is BGC-823. Nature of the data set: Downregulation of PD-L1 mRNA level in human BGC-823 cells at 0.5 to 2 uM incubated for 5 days by qRT-PCR analysis. It counts as functional, cell-based. The following applies: dose 0.5-2 µM, time 5.0 day. On the technique in general: Quantitative PCR measures a nucleic acid by following its amplification.
Data set [3] concerns MFC. Nature of the data set: Antitumor activity against MFC cells implanted in 615 mouse assessed as decrease in PD-L1 expression in tumor administered intragastrically for 14 days by Western blot analysis. The format is functional, cell-based. The settings on record: dose 15-50 mg/kg, route ig, time 14.0 day.
Data set [4] deals with BGC-823. Put plainly: Cytotoxicity against human BGC-823 cells co-cultured with T cells assessed as increase in TNF-alpha mRNA level at 1 uM by qRT-PCR analysis. The format is functional, cell-based.
Data set [5] deals with BGC-823. Put plainly: Cytotoxicity against human BGC-823 cells co-cultured with T cells assessed as reduction in cell viability pretreated for 5 days followed by co-incubation with T cells for 4 days by CCK8 assay. It counts as functional, cell-based. The settings on record: dose 0.5-2 µM, time 5.0 day.
Data set [6] concerns MFC. Put plainly: Antitumor activity against MFC cells implanted in 615 mouse assessed as reduction in tumor size at 15 to 50 mg/kg, IG administered for 14 days. The format is functional, organism-based. The settings on record: dose 15-50 mg/kg, time 14.0 day.
Data set [7] in a line: Toxicity in 615 mouse implanted with MFC cells assessed as change in body weight upto 50 mg/kg, IG measured after 14 days. The format is organism-based. The settings on record: in vivo, po, 336 h, time 14 day.
For data set [8], the system named is BGC-823. Nature of the data set: Cytotoxicity against human BGC-823 cells co-cultured with T cells assessed as increase in 4-1BB mRNA level at 1 uM by qRT-PCR analysis. The format is functional, cell-based.
In data set [9] the test system is BGC-823. Put plainly: Inhibition of cell migration in human BGC-823 cells at 0.5 to 2 uM measured upto 48 hrs by fluorescence microscope based wound healing assay. It counts as functional. The settings on record: dose 0.5-2 µM.
The test system of data set [10] is BGC-823. Put plainly: Cytotoxicity against human BGC-823 cells co-cultured with T cells assessed as increase in IL-2 mRNA level at 1 uM by qRT-PCR analysis. The format is functional, cell-based.
Data set [11] has as its target Programmed cell death protein 1/Programmed cell death 1 ligand 1 (Homo sapiens) (UniProt Q15116+Q9NZQ7). Put plainly: Inhibition of Fc-tagged recombinant human PD-1 binding to PD-L1 in human BGC-823 cells incubated for 5 days by DAPI staining based confocal microscopic analysis. The settings on record: dose 0.5-2 µM, time 5.0 day. The format is cell-based.
The test system of data set [12] is BGC-823. Nature of the data set: Cytotoxicity against human BGC-823 cells co-cultured with T cells assessed as increase in CCR10 mRNA level at 1 uM by qRT-PCR analysis. It counts as functional, cell-based.
The target in data set [13] is T1, Lysine-specific histone demethylase 1A. Put plainly: Binding affinity to LSD1 in human BGC-823 cells assessed as thermal stability at 2 uM measured at 40 to 55 degreeC by cellular thermal shift assay. The format is cell-based.
Data set [14] shares this target. Nature of the data set: Inhibition of LSD1 in human BGC-823 cells assessed as induction of H3K4me1 accumulation at 0.5 to 2 uM incubated for 5 days by Western blot analysis. The following applies: dose 0.5-2 µM, time 5.0 day. The format is cell-based.
The subject of data set [15] is BGC-823. Put plainly: Inhibition of stemness in human BGC-823 cells assessed as inhibition of SOX2 expression at 0.5 to 2 uM by Western blot analysis. The format is functional, cell-based. The following applies: dose 0.5-2 µM. Background: In western blotting, separated proteins are transferred to a membrane and probed.
Data set [16] has as its system MFC. Nature of the data set: Downregulation of PD-L1 mRNA level in MFC cells at 0.5 to 2 uM incubated for 5 days by qRT-PCR analysis. The following applies: Mus musculus, dose 0.5-2 µM, time 5.0 day. It counts as functional, cell-based.
The nature of data set [17]: Toxicity in 615 mouse implanted with MFC cells assessed as kidney damage upto 50 mg/kg, IG measured after 14 days. It counts as organism-based. The following applies: in vivo, po, 336 h, time 14 day.
The test system of data set [18] is BGC-823. Put plainly: Inhibition of stemness in human BGC-823 cells assessed as inhibition of CD44 expression at 0.5 to 2 uM by Western blot analysis. It counts as functional, cell-based. The following applies: dose 0.5-2 µM.
Data set [19] has as its system MFC. Nature of the data set: Antitumor activity against MFC cells implanted in 615 mouse assessed as increase in TNF-alpha mRNA level at 15 to 50 mg/kg, IG administered for 14 days by qRT-PCR analysis. It counts as functional, organism-based. The settings on record: dose 15-50 mg/kg, time 14.0 day.
The test system of data set [20] is MFC. Nature of the data set: Antitumor activity against MFC cells implanted in 615 mouse assessed as increase in IL-2 mRNA level at 15 to 50 mg/kg, IG administered for 14 days by qRT-PCR analysis. The following applies: dose 15-50 mg/kg, time 14.0 day. It counts as functional, organism-based.
Data set [21] relates to MFC. Nature of the data set: Antitumor activity against MFC cells implanted in 615 mouse assessed as inhibition of tumor growth administered intragastrically for 14 days. The format is functional, cell-based. The following applies: dose 15-50 mg/kg, route ig, time 14.0 day.
For data set [22], the system named is BGC-823. Nature of the data set: Downregulation of PD-L1 level in human BGC-823 cells incubated for 5 days by Western blot analysis. The format is functional, cell-based. The settings on record: dose 0.5-2 µM, time 5.0 day.
Data set [23] deals with BGC-823. Nature of the data set: Inhibition of stemness in human BGC-823 cells assessed as inhibition of OCT4 expression at 0.5 to 2 uM by Western blot analysis. It counts as functional, cell-based. The settings on record: dose 0.5-2 µM.
The subject of data set [24] is MFC. Put plainly: Downregulation of PD-L1 level in MFC cells incubated for 5 days by Western blot analysis. It counts as functional, cell-based. The following applies: Mus musculus, dose 0.5-2 µM, time 5.0 day.
Data set [25] has as its system MFC. Nature of the data set: Antitumor activity against MFC cells implanted in 615 mouse assessed as increase in IFN-gamma mRNA level at 15 to 50 mg/kg, IG administered for 14 days by qRT-PCR analysis. The format is functional, organism-based. The following applies: dose 15-50 mg/kg, time 14.0 day.
Data set [26] deals with MFC. Put plainly: Antiproliferative activity against MFC cells assessed as inhibition of cell proliferation at 2 uM incubated for 5 days by CCK8 assay. The format is functional. The settings on record: Mus musculus, 120 h, time 5 day. For orientation: Tetrazolium dyes change colour on reduction, which living cells bring about.
Data set [27] relates to BGC-823. Nature of the data set: Cytotoxicity against human BGC-823 cells co-cultured with T cells assessed as increase in CCR7 mRNA level at 1 uM by qRT-PCR analysis. The format is functional, cell-based.
Data set [28] can be described thus: Toxicity in 615 mouse implanted with MFC cells assessed as liver damage upto 50 mg/kg, IG measured after 14 days. It counts as organism-based. The following applies: in vivo, po, 336 h, time 14 day.
The test system of data set [29] is BGC-823. Put plainly: Inhibition of stemness in human BGC-823 cells assessed as inhibition of Nanog expression at 0.5 to 2 uM by Western blot analysis. The format is functional, cell-based. The following applies: dose 0.5-2 µM.
Data set [30] has as its target T1, Lysine-specific histone demethylase 1A. Nature of the data set: Inhibition of LSD1 in human BGC-823 cells assessed as induction of H3K4me2 accumulation at 0.5 to 2 uM incubated for 5 days by Western blot analysis. The settings on record: dose 0.5-2 µM, time 5.0 day. It counts as cell-based.
Data set [31] relates to BGC-823. Nature of the data set: Cytotoxicity against human BGC-823 cells co-cultured with T cells assessed as increase in IFN-gamma mRNA level at 1 uM by qRT-PCR analysis. The format is functional, cell-based.

Active and inactive are the calls of the source. No cut-off for these calls is given here.

In the case of `Cc1ccc2c(Nc3ccc(N(C)C)cc3)c3ccc([N+](=O)[O-])cc3nc2c1C`, the IC50 in [1] is above 10 µM.
As for `CN(C)c1ccc(Nc2c3ccccc3nc3c(N(C)C)cccc23)cc1`, the IC50 in [1] was above 10 µM.
On the same count and under the same terms, the figure for `CN(C)C(=O)c1ccc(Nc2c3ccccc3nc3ccccc23)cc1` is above 10 µM.
Consider `Cc1ccc2nc3c(C)c(C)ccc3c(Nc3ccc(N(C)C)cc3)c2c1`, for which the result in the data set on BGC-823 [2], in the data set on BGC-823 [4], with MFC [6], in the data set with BGC-823 [8], in the data set with BGC-823 [10] and with BGC-823 [12] was Active. Also, the outcome (in [13]; in the data set with MFC [16]; with MFC [19]; in the data set on MFC [20]; with MFC [25]; in the data set with BGC-823 [27]) was Active. The outcome in the data set on BGC-823 [31] was Active. Moreover, the Activity entry in the data set with MFC [3] was “Dose-Dependent Effect”; in the data set on BGC-823 [5], “Dose-Dependent Effect”; in data set [7], “Non-Toxic”; in data set [17] it was “Non-Toxic”; in the data set on MFC [21], “Dose-Dependent Effect”; in the data set on BGC-823 [22], “Dose-Dependent Effect”. The Activity result in the data set with MFC [24] was “Dose-Dependent Effect”; in [28], “Non-Toxic”. Besides, the inhibition entry (with BGC-823 [9]; in data set [14]; in the data set with BGC-823 [15]; in the data set on BGC-823 [18]; with BGC-823 [23]; in the data set on BGC-823 [29]) was “Active” in each case. The inhibition result in data set [30] was “Active”. In addition, the inhibition result in data set [11] is “Dose-Dependent Effect”. Further, in [1], the half-inhibitory concentration (IC50) came out at 0.013 µM. Also, the inhibition at 2 µM in the data set on MFC [26] is above 10%.
In the case of `CN(C)Cc1ccc(Nc2c3ccccc3nc3ccccc23)cc1`, in data set [1], the concentration for half-maximal inhibition (IC50) was above 10 µM.

One may read the IC50 as the midpoint of a concentration-inhibition curve. As a reminder, the inhibition is the change of the read-out against control, counted positive when it falls.
